Assay results reported in article PMC10094617, “Iron(III) Complexes with Non-Steroidal Anti-Inflammatory Drugs: Structure, Antioxidant and Anticholinergic Activity, and Interaction with Biomolecules” (International Journal of Molecular Sciences, 2023).
Counter-ions that a name gives are not always drawn.

Tests used:
[1] = target: T1, electric eel acetylcholinesterase (eeAChE) (Electrophorus electricus, UniProt O42275); test: Inhibition of acetylcholinesterase (modified Ellman's method); assay type: biochemical; details: 10^−3 M of the compound, pH 7.4, 37 °C; for inhibition at 1000 µM: read-out: AChE (I%) inhibition rate
T1 construct: purchased J&K Scientific Co. (Beijing, China)
Description: (§1) In the study of cholinesterase inhibitors, the inhibitory effect of the compounds (the NSAIDs and their complexes 1–3) against AChE and BuChE was examined using a modified methodology based on Ellman’s method.
(§2) The ability of the compounds to inhibit AChE and BuChE was evaluated using UV-vis spectroscopy. All the assays were carried out in a 0.1M NaH2PO4/Na2HPO4 buffer at a pH = 7.4. Enzyme solutions were prepared with 2.0 U/mL for AChE and 3.0 U/mL for BuChE. A reaction mixture containing 20 μL of phosphate buffer, 100 μL of DTNB (1-mM), and 40 μL of the enzyme (AChE and BuChE) was incubated with 20 μL of the compounds at various concentrations at 37 °C for 15 min. The reaction was started by the addition of the substrate (20-μL) of ATCI or BTCI solution (1-mM), respectively, and incubation for additional 3 min.
(§3) The enzyme activity was determined by measuring the increase in absorbance at 2-min intervals at 412 nm at 37 °C (ε = 14,150 M^−1cm^−1).
The rate of inhibition of each enzyme by the compounds was calculated according to the following expression:(1) I%=(1−VB/VA)×100 where VB and VA indicate the absorbance measured for ChEs in the presence and absence of inhibitors, respectively. The results are expressed as the average of three repetitions of the tests performed and the standard deviation was less than 3% of the mean. The selectivity index (SI), defined as IC50 BuChE/IC50 AChE, was also calculated. Neostigmine methyl sulfate was used as the appropriate standard.

[2] = target: T2, equine serum butyrylcholinesterase (eqBuChE) (Equus caballus, UniProt P81908); test: Inhibition of butyrylcholinesterase (modified Ellman's method); assay type: biochemical; details: for inhibition at 1000 µM: read-out: BuChE (I%) inhibition rate; for SI (selectivity index = IBuChE/IAChE): ratio of inhibition rates at 10^−3 M
T2 construct: purchased J&K Scientific Co. (Beijing, China); host or cells: equine serum (by the product's name)
Description: as §1, §2, §3
The rate of inhibition of each enzyme by the compounds was calculated according to the following expression:(1) I%=(1−VB/VA)×100 where VB and VA indicate the absorbance measured for ChEs in the presence and absence of inhibitors, respectively. […] Neostigmine methyl sulfate was used as the appropriate standard.

DPPH radical scavenging = assay type: biochemical; details: compound 0.1 mM, ethanol
Description: (§4) The antioxidant activity of complexes 1–3 was evaluated via their ability to scavenge the free radicals DPPH, hydroxyl, and ABTS. Each experiment was performed in triplicate and the standard deviation of absorbance was less than 10% of the mean.
Ethanol was also used as a control solution. The absorbance at 517 nm was recorded at room temperature, two times, after 20 and 60 min, in order to examine the time-dependence of the DPPH-scavenging activity. The DPPH-scavenging activity of the compounds was expressed as the percentage reduction of the absorbance values of the initial DPPH solution (RA%). The compounds NDGA and BHT were used as reference compounds.

[3] = Competition with DMSO for hydroxyl radicals; assay type: biochemical; details: compound 0.1 mM; 30 min, 37 °C, pH 7.4
Description: as §4
Competition of the tested compounds with DMSO for hydroxyl radicals: The hydroxyl radicals generated by the Fe^3+/ascorbic acid system were detected according to Nash by the determination of formaldehyde produced from the oxidation of DMSO [155]. The reaction mixture contained EDTA (0.1 mM), Fe^3+ (167 μM), DMSO (33 mM) in phosphate buffer (50 mM, pH 7.4), complexes 1–3 (concentration 0.1 mM), and ascorbic acid (10 mM). After a 30-min incubation at 37 °C, the reaction was stopped with CCl3COOH (17% w/v) and the absorbance at λ = 412 nm was measured. Trolox was used as a reference compound. The competition of the compounds with DMSO for •OH, generated by the Fe^3+/ascorbic acid system, expressed as the percentage of inhibition of formaldehyde production, was used for the evaluation of their hydroxyl radical-scavenging activity (OH%).

[4] = ABTS radical cation scavenging; assay type: biochemical; details: compound 0.1 mM; 1 min after mixing
Description: as §4
Assay of radical cation scavenging activity (ABTS^+•): An ABTS cationic radical (ABTS^+•) was produced by reacting an aqueous stock solution (2 mM) of ABTS with 0.17-mM potassium persulfate and allowing the mixture to stand in the dark at room temperature for 12–16 h before use. […] Although the oxidation of ABTS commenced immediately, the absorbance became maximal and stable after 6 h. The radical was stable in this form for more than two days when stored in the dark at room temperature. The ABTS radical solution was diluted with ethanol to an absorbance of 0.70 at 734 nm. After the addition of 10 μL of complexes 1–3 or the standards (0.1 mM) in DMSO, the absorbance was recorded exactly 1 min after initial mixing. The radical scavenging activity of the complexes was expressed as the percentage inhibition of the absorbance of the initial ABTS solution (ABTS%). Trolox was used as a reference compound.

EB–DNA adduct (CT DNA) = test: EB-displacement from EB–DNA adduct (fluorescence emission); assay type: binding, calf
Description: EB-displacement studies: The competition of complexes 1–3 with EB was investigated by fluorescence emission spectroscopy in order to examine whether the complexes can displace EB from its DNA–EB conjugate. The DNA–EB conjugate was prepared by adding 20-μM EB and 26-μM CT DNA in the buffer solution (150-mM NaCl and 15-mM trisodium citrate at pH 7.0). The possible intercalating effect of the complexes was studied by the addition of a certain amount of a solution of the compound into a solution of the DNA–EB conjugate. The influence of each compound to the DNA–EB complex solution was obtained by recording the changes in the fluorescence emission spectra with the excitation wavelength (λex) at 540 nm.
The Stern–Volmer constant KSV is used to evaluate the quenching efficiency for each compound according to the Stern–Volmer equation (Equation (3)), where Io and I are the emission intensities in the absence and the presence of the quencher, respectively, and [Q] is the concentration of the quencher (i.e., complexes 1–3). The value of KSV is obtained from the Stern–Volmer plots by using the slope of the diagram Io/I versus [Q]. Taking τo = 23 ns as the fluorescence lifetime of the EB–DNA system, the EB–DNA quenching constants (Kq, in M^−1s^−1) of the compounds can be determined according to Equation (4).

[5] = Solubility of the complexes; assay type: physicochemical
calf-thymus (CT) DNA = target: calf-thymus (CT) DNA; set-up: method as in PMID 3427013; details: cited from earlier work
[6] = set-up: method as in PMID 8216032; details: cited from earlier work
[7] = 10^−3 M of the compound, pH 7.4, 37 °C

T1 sequence (O42275 24-633): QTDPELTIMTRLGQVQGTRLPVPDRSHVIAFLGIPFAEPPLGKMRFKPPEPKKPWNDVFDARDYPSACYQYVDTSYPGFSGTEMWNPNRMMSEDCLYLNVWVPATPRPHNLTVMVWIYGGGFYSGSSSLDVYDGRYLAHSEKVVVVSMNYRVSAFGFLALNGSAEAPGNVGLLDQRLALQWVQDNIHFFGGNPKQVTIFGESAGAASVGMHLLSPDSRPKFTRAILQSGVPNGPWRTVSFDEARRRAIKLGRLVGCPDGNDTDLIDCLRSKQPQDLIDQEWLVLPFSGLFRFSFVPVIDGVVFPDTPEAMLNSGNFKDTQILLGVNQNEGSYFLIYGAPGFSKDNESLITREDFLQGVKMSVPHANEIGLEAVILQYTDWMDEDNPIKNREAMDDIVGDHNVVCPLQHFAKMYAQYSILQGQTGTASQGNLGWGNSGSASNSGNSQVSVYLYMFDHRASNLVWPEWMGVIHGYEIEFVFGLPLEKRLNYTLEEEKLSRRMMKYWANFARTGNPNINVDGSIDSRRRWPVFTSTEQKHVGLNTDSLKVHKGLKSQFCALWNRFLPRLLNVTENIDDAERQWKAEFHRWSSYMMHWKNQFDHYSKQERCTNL
T2 sequence (P81908 whole entry): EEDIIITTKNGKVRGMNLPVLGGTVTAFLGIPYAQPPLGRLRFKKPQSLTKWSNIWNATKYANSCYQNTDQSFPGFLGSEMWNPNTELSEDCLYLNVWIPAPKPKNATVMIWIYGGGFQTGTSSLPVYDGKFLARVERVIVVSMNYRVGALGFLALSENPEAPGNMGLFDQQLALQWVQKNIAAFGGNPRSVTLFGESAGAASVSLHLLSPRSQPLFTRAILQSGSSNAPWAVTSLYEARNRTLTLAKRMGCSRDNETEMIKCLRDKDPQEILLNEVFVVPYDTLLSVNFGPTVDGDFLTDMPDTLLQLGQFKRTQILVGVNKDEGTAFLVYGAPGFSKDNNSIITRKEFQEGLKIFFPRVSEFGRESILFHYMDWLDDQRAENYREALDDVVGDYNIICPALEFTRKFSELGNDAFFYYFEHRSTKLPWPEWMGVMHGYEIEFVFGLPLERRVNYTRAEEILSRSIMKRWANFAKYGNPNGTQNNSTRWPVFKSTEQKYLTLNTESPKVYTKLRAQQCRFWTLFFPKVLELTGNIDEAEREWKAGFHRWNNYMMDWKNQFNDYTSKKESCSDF

SMILES | inhibition at 1000 µM [1] | inhibition at 1000 µM [2, 7] | SI (selectivity index = IBuChE/IAChE) [2] | DPPH% (DPPH scavenging ability), 20 min (DPPH radical scavenging) | DPPH% (DPPH scavenging ability), 60 min (DPPH radical scavenging) | OH% (competition % with DMSO for hydroxyl radical) [3] | ABTS% (ABTS radical scavenging activity) [4] | further results
O=C(O)Cc1ccccc1Nc1c(Cl)cccc1Cl [Nadicl, Sodium diclofenac] | 10.3 ± 1.75% | 14.1 ± 0.12% | 1.37 | 18.26 ± 0.60% | 17.43 ± 0.23% | 75.46 ± 0.44% | 76.35 ± 0.75% | –
C[O-].C[O-].O.O=C([O-])c1cc(-c2ccc(F)cc2F)ccc1[O-].O=C([O-])c1cc(-c2ccc(F)cc2F)ccc1[O-].[Fe+3].[Fe+3].c1cnc2c(c1)ccc1cccnc12.c1cnc2c(c1)ccc1cccnc12 [Complex 1, [Fe2(difl)2(MeO)2(phen)2]∙H2O] | – | – | – | 12.57 ± 0.29% | 15.86 ± 0.62% | 91.08 ± 1.81% | 85.38 ± 0.92% | AChE (I%) inhibition rate [1]: 1.77 ± 0.82%; BuChE (I%) inhibition rate [2, 7]: 79.25 ± 2.00%; KSV Stern–Volmer constant (EB–DNA) (EB–DNA adduct (CT DNA); EB–DNA fluorescence): 6.37 (±0.40) × 10^5 M^−1; ΔI/Io (%) EB–DNA fluorescence quenching (EB–DNA adduct (CT DNA); [EB] = 20 μM, [DNA] = 26 μM, λex 540 nm, λem 592 nm): 66.8%; Kq quenching constant of the EB–DNA fluorescence (EB–DNA adduct (CT DNA); τo = 23 ns): 2.77 (±0.10) × 10^13 M^−1s^−1; solubility [5]: Soluble in DMF and DMSO
Cc1cc(C(C)(C)C)c(O)c(C(C)(C)C)c1 [BHT, butylated hydroxytoluene] | – | – | – | 31.30 ± 0.10% | 60.00 ± 0.38% | – | – | –
CC(Cc1ccc(O)c(O)c1)C(C)Cc1ccc(O)c(O)c1 (centres unmarked) [NDGA, nordihydroguaiaretic acid] | – | – | – | 81.02 ± 0.18% | 82.60 ± 0.17% | – | – | –
CN(C)C(=O)Oc1cccc([N+](C)(C)C)c1 [Neo, Neostigmine methyl sulfate] | 96.98 ± 0.02% | 98.4 ± 1.55% | 1.01 | – | – | – | – | –
CC[n+]1c(-c2ccccc2)c2cc(N)ccc2c2ccc(N)cc21.[Br-] [EB, 3,8-diamino-5-ethyl-6-phenyl-phenanthridinium bromide] | – | – | – | – | – | – | – | Kb DNA-binding constant of the classical intercalator EB (calf-thymus (CT) DNA): 1.23 (±0.07) × 10^5 M^−1
O=C(O)c1cc(-c2ccc(F)cc2F)ccc1O [Complex H2difl, Diflunisal] | 17.2 ± 1.46% | 22.9 ± 1.71% | 1.32 | 10.42 ± 0.56% | 14.31 ± 0.45% | 86.06 ± 0.38% | 76.58 ± 0.74% | half-life period of activity [6]: ~ 12 h
Cc1c(C)c2c(c(C)c1O)CCC(C)(C(=O)O)O2 (centres unmarked) [Trolox, 6-hydroxy-2,5,7,8-tetramethylchromane-2-carboxylic acid, reference compound] | – | – | – | – | – | 82.80 ± 0.13% | 91.8 ± 0.17% | –
